Experiments:
[1] = biological target: 5-hydroxytryptamine receptor 2B (Homo sapiens, UniProt P41595); details: Compound concentration 10.0 uM
[2] = biological target: 5-hydroxytryptamine receptor 1D (Homo sapiens) (UniProt P28221); details: Compound concentration 10.0 uM
[3] = biological target: Serine/threonine-protein kinase TAO2 (Homo sapiens) (UniProt Q9UL54); experiment: TAOK2 ProQinase selectivity panel; details: Compound concentration 1.0 uM
[4] = biological target: PAS domain-containing serine/threonine-protein kinase (Homo sapiens) (UniProt Q96RG2); experiment: PASK ProQinase selectivity panel; details: Compound concentration 1.0 uM
[5] = biological target: Focal adhesion kinase 1 (Homo sapiens) (UniProt Q05397); experiment: FAK ProQinase selectivity panel; details: Compound concentration 1.0 uM
[6] = biological target: 5-hydroxytryptamine receptor 3A (Homo sapiens) (UniProt P46098); details: Compound concentration 10.0 uM
[7] = biological target: Casein kinase I isoform gamma-3 (Homo sapiens) (UniProt Q9Y6M4); experiment: CK1-gamma3 ProQinase selectivity panel; details: Compound concentration 1.0 uM
[8] = biological target: Serine/threonine-protein kinase DCLK2 (Homo sapiens) (UniProt Q8N568); experiment: DCAMKL2 ProQinase selectivity panel; details: Compound concentration 1.0 uM
[9] = biological target: Casein kinase I isoform gamma-1 (Homo sapiens) (UniProt Q9HCP0); experiment: CK1-gamma1 ProQinase selectivity panel; details: Compound concentration 1.0 uM
[10] = biological target: Eukaryotic elongation factor 2 kinase (Homo sapiens) (UniProt O00418); experiment: EEF2K ProQinase selectivity panel; details: Compound concentration 1.0 uM
[11] = biological target: Cyclin-dependent kinase 9 (Homo sapiens) (UniProt P50750); experiment: CDK9/CycT ProQinase selectivity panel; details: Compound concentration 1.0 uM
[12] = biological target: Beta-2 adrenergic receptor (Homo sapiens) (UniProt P07550); details: Compound concentration 10.0 uM
[13] = biological target: Calcium/calmodulin-dependent protein kinase type 1D (Homo sapiens) (UniProt Q8IU85); experiment: CAMK1D ProQinase selectivity panel; details: Compound concentration 1.0 uM
[14] = biological target: Cyclin-dependent kinase 5/CDK5 activator 1 (Homo sapiens) (UniProt Q00535+Q15078); experiment: CDK5/p25NCK ProQinase selectivity panel; assay type: protein-complex assay; details: Compound concentration 1.0 uM
[15] = biological target: Fibroblast growth factor receptor 4 (Homo sapiens) (UniProt P22455); experiment: FGF-R4 ProQinase selectivity panel; details: Compound concentration 1.0 uM
[16] = tested on: Epidermal growth factor receptor (Homo sapiens), P00533 [UNDEFINED MUTATION]; experiment: EGF-R d747-752/P753S ProQinase selectivity panel; details: Compound concentration 1.0 uM
[17] = biological target: Serine/threonine-protein kinase D2 (Homo sapiens) (UniProt Q9BZL6); experiment: PRKD2 ProQinase selectivity panel; details: Compound concentration 1.0 uM
[18] = biological target: Mu-type opioid receptor (Homo sapiens) (UniProt P35372); details: Compound concentration 10.0 uM
[19] = biological target: Protein kinase C zeta type (Homo sapiens) (UniProt Q05513); experiment: PKC-zeta ProQinase selectivity panel; details: Compound concentration 1.0 uM
[20] = biological target: Tyrosine-protein kinase ITK/TSK (Homo sapiens) (UniProt Q08881); experiment: ITK ProQinase selectivity panel; details: Compound concentration 1.0 uM
[21] = biological target: Protein kinase C gamma type (Homo sapiens) (UniProt P05129); experiment: PKC-gamma ProQinase selectivity panel; details: Compound concentration 1.0 uM
[22] = biological target: Serine/threonine-protein kinase 17A (Homo sapiens) (UniProt Q9UEE5); experiment: STK17A ProQinase selectivity panel; details: Compound concentration 1.0 uM
[23] = biological target: Calcium/calmodulin-dependent protein kinase type IV (Homo sapiens) (UniProt Q16566); experiment: CAMK4 ProQinase selectivity panel; details: Compound concentration 1.0 uM
[24] = biological target: Cyclin-dependent kinase 16 (Homo sapiens) (UniProt Q00536); experiment: PCTAIRE1 ProQinase selectivity panel; details: Compound concentration 1.0 uM
[25] = tested on: Epidermal growth factor receptor (Homo sapiens), P00533 [T790M]; experiment: EGF-R T790M ProQinase selectivity panel; details: Compound concentration 1.0 uM
[26] = biological target: Serine/threonine-protein kinase PLK4 (Homo sapiens) (UniProt O00444); experiment: SAK ProQinase selectivity panel; details: Compound concentration 1.0 uM
[27] = biological target: MAP/microtubule affinity-regulating kinase 3 (Homo sapiens) (UniProt P27448); experiment: MARK3 ProQinase selectivity panel; details: Compound concentration 1.0 uM
[28] = biological target: Platelet-derived growth factor receptor alpha (Homo sapiens) (UniProt P16234); experiment: PDGFR-alpha wt ProQinase selectivity panel; details: Compound concentration 1.0 uM
[29] = biological target: Casein kinase II subunit alpha (Homo sapiens) (UniProt P68400); experiment: CK2-alpha1 ProQinase selectivity panel; details: Compound concentration 1.0 uM
[30] = biological target: Calcium/calmodulin-dependent protein kinase type II subunit delta (Homo sapiens) (UniProt Q13557); experiment: CAMK2D ProQinase selectivity panel; details: Compound concentration 1.0 uM
[31] = tested on: Hepatocyte growth factor receptor (Homo sapiens), P08581 [D1228H]; experiment: MET D1228H ProQinase selectivity panel; details: Compound concentration 1.0 uM
[32] = biological target: 5-hydroxytryptamine receptor 2A (Homo sapiens, UniProt P28223); experiment: GPCRScan assay: inhibition of 5-HT2A; set-up: radioligand conc. used [nm] 1.2 – 2.4, parental cells HEKT
[33] = biological target: Serine/threonine-protein kinase MRCK beta (Homo sapiens) (UniProt Q9Y5S2); experiment: CDC42BPB ProQinase selectivity panel; details: Compound concentration 1.0 uM
[34] = biological target: Tyrosine-protein kinase Yes (Homo sapiens) (UniProt P07947); experiment: YES ProQinase selectivity panel; details: Compound concentration 1.0 uM
[35] = biological target: Interferon-induced, double-stranded RNA-activated protein kinase (Homo sapiens) (UniProt P19525); experiment: EIF2AK2 ProQinase selectivity panel; details: Compound concentration 1.0 uM
[36] = biological target: Ribosomal protein S6 kinase beta-1 (Homo sapiens) (UniProt P23443); experiment: S6K ProQinase selectivity panel; details: Compound concentration 1.0 uM
[37] = biological target: Hepatocyte growth factor receptor (Homo sapiens) (UniProt P08581); experiment: MET wt ProQinase selectivity panel; details: Compound concentration 1.0 uM
[38] = biological target: Leukocyte tyrosine kinase receptor (Homo sapiens) (UniProt P29376); experiment: LTK ProQinase selectivity panel; details: Compound concentration 1.0 uM
[39] = biological target: Tyrosine-protein kinase Fes/Fps (Homo sapiens) (UniProt P07332); experiment: FES ProQinase selectivity panel; details: Compound concentration 1.0 uM
[40] = biological target: Serine/threonine-protein kinase 25 (Homo sapiens) (UniProt O00506); experiment: STK25 ProQinase selectivity panel; details: Compound concentration 1.0 uM
[41] = biological target: Eukaryotic translation initiation factor 2-alpha kinase 3 (Homo sapiens) (UniProt Q9NZJ5); experiment: EIF2AK3 ProQinase selectivity panel; details: Compound concentration 1.0 uM
[42] = biological target: Serine/threonine-protein kinase Nek3 (Homo sapiens) (UniProt P51956); experiment: NEK3 ProQinase selectivity panel; details: Compound concentration 1.0 uM
[43] = biological target: Tyrosine-protein kinase TXK (Homo sapiens) (UniProt P42681); experiment: TXK ProQinase selectivity panel; details: Compound concentration 1.0 uM
[44] = biological target: Beta-1 adrenergic receptor (Homo sapiens) (UniProt P08588); details: Compound concentration 10.0 uM
[45] = tested on: Hepatocyte growth factor receptor (Homo sapiens), P08581 [Y1230H]; experiment: MET Y1230H ProQinase selectivity panel; details: Compound concentration 1.0 uM
[46] = biological target: Interleukin-1 receptor-associated kinase 1 (Homo sapiens) (UniProt P51617); experiment: IRAK1 ProQinase selectivity panel; details: Compound concentration 1.0 uM
[47] = tested on: Leucine-rich repeat serine/threonine-protein kinase 2 (Homo sapiens), Q5S007 [G2019S]; experiment: LRRK2 G2019S ProQinase selectivity panel; details: Compound concentration 1.0 uM
[48] = biological target: Protein-tyrosine kinase 6 (Homo sapiens) (UniProt Q13882); experiment: BRK ProQinase selectivity panel; details: Compound concentration 1.0 uM

Chain of 5-hydroxytryptamine receptor 2A (P28223 whole entry): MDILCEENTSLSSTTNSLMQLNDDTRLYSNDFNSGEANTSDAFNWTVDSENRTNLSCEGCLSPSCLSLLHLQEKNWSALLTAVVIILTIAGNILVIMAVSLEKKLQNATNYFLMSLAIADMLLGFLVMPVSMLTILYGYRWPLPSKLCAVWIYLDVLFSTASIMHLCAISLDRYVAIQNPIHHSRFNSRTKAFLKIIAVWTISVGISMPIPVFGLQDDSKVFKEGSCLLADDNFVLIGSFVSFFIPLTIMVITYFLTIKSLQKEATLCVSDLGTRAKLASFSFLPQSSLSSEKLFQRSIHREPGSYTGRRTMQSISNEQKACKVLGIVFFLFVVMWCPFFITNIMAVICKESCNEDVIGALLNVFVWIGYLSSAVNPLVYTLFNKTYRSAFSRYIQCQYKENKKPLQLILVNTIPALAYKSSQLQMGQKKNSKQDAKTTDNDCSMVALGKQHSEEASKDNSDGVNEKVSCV
Chain of Serine/threonine-protein kinase 25 (Homo sapiens) (O00506 whole entry, looked up): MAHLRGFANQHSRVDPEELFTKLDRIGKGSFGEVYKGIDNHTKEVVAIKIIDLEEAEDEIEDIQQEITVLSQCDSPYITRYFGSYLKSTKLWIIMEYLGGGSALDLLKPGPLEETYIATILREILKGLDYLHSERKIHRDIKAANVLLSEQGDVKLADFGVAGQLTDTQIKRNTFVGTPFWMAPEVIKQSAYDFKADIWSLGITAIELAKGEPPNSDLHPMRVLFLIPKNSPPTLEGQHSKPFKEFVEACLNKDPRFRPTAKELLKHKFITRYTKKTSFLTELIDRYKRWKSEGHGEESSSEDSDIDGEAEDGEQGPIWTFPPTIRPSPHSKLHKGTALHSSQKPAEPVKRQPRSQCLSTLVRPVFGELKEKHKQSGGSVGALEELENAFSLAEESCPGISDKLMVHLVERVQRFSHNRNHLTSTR
Chain of Hepatocyte growth factor receptor (Homo sapiens) (P08581 whole entry): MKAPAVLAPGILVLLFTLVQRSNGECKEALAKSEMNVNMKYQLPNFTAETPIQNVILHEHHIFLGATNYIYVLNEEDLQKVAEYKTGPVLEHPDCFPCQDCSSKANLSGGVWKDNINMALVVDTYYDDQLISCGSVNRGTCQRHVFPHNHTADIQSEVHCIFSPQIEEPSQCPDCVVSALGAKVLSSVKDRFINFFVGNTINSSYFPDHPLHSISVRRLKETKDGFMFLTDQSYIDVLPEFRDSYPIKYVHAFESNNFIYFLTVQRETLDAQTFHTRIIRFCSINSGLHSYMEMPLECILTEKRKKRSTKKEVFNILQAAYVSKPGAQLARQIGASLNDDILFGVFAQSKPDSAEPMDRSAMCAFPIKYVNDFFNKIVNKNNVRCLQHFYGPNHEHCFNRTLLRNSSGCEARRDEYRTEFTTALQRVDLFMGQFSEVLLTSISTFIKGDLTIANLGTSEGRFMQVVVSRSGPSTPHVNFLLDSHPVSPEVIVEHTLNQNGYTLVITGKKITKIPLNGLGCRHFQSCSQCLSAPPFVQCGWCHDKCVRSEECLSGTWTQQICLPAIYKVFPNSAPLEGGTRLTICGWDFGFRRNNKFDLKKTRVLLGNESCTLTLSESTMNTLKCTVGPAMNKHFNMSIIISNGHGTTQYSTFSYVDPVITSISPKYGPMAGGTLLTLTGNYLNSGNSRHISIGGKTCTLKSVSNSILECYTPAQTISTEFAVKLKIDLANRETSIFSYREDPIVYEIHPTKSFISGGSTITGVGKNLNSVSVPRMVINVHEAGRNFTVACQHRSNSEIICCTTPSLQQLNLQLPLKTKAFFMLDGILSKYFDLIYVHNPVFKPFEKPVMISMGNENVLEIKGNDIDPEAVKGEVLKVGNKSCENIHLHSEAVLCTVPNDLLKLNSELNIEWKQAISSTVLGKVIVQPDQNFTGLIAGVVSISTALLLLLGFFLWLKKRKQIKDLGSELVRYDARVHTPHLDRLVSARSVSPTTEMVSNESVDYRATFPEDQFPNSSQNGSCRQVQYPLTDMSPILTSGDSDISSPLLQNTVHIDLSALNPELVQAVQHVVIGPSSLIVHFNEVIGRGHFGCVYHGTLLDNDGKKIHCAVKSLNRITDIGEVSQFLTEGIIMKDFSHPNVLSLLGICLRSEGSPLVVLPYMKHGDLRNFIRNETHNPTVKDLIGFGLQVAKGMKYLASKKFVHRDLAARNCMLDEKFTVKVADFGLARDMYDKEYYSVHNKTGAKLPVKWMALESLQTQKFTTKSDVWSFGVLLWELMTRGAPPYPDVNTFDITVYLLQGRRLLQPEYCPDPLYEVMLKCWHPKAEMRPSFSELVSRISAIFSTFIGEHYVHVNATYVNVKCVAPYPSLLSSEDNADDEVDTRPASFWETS
Chain of Hepatocyte growth factor receptor (Homo sapiens), P08581 [D1228H] (P08581 whole entry D1228H): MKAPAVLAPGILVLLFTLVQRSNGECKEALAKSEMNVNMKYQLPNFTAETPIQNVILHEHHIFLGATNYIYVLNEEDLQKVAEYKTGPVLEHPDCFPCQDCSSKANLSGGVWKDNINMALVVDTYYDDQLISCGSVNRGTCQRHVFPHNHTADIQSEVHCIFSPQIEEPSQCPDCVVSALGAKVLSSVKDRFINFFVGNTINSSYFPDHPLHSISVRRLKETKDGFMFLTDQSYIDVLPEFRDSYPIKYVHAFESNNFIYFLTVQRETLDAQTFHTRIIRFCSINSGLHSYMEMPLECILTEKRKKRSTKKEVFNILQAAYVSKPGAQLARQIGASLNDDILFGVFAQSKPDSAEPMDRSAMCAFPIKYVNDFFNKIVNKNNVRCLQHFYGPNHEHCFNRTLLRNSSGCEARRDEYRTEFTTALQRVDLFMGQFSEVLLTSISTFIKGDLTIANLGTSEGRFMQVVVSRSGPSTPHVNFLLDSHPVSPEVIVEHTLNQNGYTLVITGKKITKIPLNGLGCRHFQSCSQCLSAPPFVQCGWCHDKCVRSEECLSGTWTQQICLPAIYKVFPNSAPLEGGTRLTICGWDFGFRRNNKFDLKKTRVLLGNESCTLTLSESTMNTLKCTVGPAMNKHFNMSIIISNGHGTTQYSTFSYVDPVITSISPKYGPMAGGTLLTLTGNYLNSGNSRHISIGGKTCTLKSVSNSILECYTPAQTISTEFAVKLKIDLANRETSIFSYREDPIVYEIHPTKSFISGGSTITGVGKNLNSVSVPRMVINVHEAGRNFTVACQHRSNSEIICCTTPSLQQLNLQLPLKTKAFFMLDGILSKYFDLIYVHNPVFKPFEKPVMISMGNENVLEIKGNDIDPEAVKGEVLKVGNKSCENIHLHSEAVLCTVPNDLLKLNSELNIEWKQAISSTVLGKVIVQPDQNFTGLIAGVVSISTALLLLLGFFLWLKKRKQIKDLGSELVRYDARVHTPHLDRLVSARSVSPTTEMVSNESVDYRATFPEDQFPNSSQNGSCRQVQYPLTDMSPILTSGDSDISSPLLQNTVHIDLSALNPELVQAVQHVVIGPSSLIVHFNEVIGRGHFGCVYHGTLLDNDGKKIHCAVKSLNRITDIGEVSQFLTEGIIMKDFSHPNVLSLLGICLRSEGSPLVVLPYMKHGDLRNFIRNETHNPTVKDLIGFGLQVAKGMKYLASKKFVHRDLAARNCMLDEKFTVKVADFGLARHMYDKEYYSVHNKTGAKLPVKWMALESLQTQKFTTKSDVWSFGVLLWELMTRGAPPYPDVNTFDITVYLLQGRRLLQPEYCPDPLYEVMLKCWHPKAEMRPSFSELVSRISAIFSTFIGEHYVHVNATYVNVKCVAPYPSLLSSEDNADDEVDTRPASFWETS
Chain of Ribosomal protein S6 kinase beta-1 (Homo sapiens) (P23443 whole entry, looked up): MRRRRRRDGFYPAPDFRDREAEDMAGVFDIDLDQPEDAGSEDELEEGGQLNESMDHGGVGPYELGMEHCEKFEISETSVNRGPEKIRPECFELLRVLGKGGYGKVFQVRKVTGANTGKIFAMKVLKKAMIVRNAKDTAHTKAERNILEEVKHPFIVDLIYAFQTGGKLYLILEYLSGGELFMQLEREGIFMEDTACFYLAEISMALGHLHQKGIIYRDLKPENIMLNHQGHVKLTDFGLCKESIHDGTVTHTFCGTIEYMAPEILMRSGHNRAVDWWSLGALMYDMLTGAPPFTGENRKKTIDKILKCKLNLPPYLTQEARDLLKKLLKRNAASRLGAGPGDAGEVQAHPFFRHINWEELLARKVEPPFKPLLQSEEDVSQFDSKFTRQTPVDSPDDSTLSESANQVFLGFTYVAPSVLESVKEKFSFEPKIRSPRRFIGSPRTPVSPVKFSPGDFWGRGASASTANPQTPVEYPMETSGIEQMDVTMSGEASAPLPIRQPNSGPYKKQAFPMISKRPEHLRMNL
Chain of Casein kinase I isoform gamma-1 (Homo sapiens) (Q9HCP0 whole entry, looked up, canonical isoform): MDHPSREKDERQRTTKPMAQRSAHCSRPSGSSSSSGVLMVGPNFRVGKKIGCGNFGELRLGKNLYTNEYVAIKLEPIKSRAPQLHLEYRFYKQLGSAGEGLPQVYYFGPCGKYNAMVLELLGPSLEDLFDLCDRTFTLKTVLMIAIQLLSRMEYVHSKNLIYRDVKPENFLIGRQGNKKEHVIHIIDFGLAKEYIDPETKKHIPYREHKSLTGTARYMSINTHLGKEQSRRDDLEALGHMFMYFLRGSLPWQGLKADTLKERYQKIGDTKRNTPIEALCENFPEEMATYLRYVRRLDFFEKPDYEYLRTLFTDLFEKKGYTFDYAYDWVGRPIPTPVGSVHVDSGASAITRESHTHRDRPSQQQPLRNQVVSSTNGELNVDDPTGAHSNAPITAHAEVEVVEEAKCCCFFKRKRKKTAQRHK
Chain of Beta-2 adrenergic receptor (Homo sapiens) (P07550 whole entry, looked up): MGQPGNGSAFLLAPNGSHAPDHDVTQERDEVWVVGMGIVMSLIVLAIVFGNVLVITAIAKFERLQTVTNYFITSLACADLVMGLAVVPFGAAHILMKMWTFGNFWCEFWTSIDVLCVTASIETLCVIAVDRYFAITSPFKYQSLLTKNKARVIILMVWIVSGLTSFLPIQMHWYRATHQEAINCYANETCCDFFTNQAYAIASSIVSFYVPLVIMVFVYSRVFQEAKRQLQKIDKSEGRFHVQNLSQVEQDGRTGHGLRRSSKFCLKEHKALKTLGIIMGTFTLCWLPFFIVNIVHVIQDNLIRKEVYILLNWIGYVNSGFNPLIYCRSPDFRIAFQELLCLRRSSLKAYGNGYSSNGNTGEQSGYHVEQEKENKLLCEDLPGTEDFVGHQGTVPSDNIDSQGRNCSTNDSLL

O=C1c2ccc(Nc3ccc(F)cc3F)cc2CCc2ccc(OC[C@H](O)CO)cc21 [Skepinone-L]
inhibition [1]: 83.1% | inhibition [2]: 23.8% | % Residual activity with Skepinone-L [3]: 102% | % Residual activity with Skepinone-L [4]: 88% | % Residual activity with Skepinone-L [5]: 113% | inhibition [6]: 6.53% | % Residual activity with Skepinone-L [7]: 95% | % Residual activity with Skepinone-L [8]: 83% | % Residual activity with Skepinone-L [9]: 97% | % Residual activity with Skepinone-L [10]: 88% | % Residual activity with Skepinone-L [11]: 103% | inhibition [12]: 2.93% | % Residual activity with Skepinone-L [13]: 106% | % Residual activity with Skepinone-L [14]: 99% | % Residual activity with Skepinone-L [15]: 103% | % Residual activity with Skepinone-L [16]: 93% | % Residual activity with Skepinone-L [17]: 85% | inhibition [18]: 22.5% | % Residual activity with Skepinone-L [19]: 109% | % Residual activity with Skepinone-L [20]: 97% | % Residual activity with Skepinone-L [21]: 99% | % Residual activity with Skepinone-L [22]: 77% | % Residual activity with Skepinone-L [23]: 111% | % Residual activity with Skepinone-L [24]: 79% | % Residual activity with Skepinone-L [25]: 119% | % Residual activity with Skepinone-L [26]: 62% | % Residual activity with Skepinone-L [27]: 95% | % Residual activity with Skepinone-L [28]: 91% | % Residual activity with Skepinone-L [29]: 95% | % Residual activity with Skepinone-L [30]: 43% | % Residual activity with Skepinone-L [31]: 97% | Ki ([32]; read-out: Ki): 3.71 µM | Ki ([32]; read-out: pKi (converted)): 3.39 µM | % Residual activity with Skepinone-L [33]: 83% | % Residual activity with Skepinone-L [34]: 119% | % Residual activity with Skepinone-L [35]: 86% | % Residual activity with Skepinone-L [36]: 85% | % Residual activity with Skepinone-L [37]: 108% | % Residual activity with Skepinone-L [38]: 97% | % Residual activity with Skepinone-L [39]: 121% | % Residual activity with Skepinone-L [40]: 100% | % Residual activity with Skepinone-L [41]: 95% | % Residual activity with Skepinone-L [42]: 85% | % Residual activity with Skepinone-L [43]: 93% | inhibition [44]: 30.4% | % Residual activity with Skepinone-L [45]: 102% | % Residual activity with Skepinone-L [46]: 101% | % Residual activity with Skepinone-L [47]: 77% | % Residual activity with Skepinone-L [48]: 84%
